Read-outs that look alike come from different tables or passages of the source.
Assays:
[1] = test system: Platelet aggregation (response to collagen); test: Platelet aggregation inhibition activity: response to intravenous collagen in mice; format: in vivo; conditions: two hours before collagen 400 μg/kg i.v.
Method: Male CFLP mice (ca 20 g, n=8) were dosed orally with compound or vehicle (controls) after an overnight fast. Two hours later each mouse received an intravenous dose of collagen (400 μg/kg, pH 6-6.6). Exactly 30 sec. after injection of collagen, each mouse was placed in a chamber of CO2 until respiration ceased. […] Each concentration was expressed as a percent of that obtained in a tail blood sample taken immediately before injection of collagen.

[2] = test system: Female CFLP mice; test: Effect on energy expenditure and food intake of mice; format: in vivo; conditions: Mus musculus, % of mice dosed with water; for response vs control in vivo at 22.9 mg/kg: 22.9 mg/kg po; for response vs control in vivo at 20 mg/kg: 20.0 mg/kg po; for response vs control in vivo at 23.3 mg/kg: 23.3 mg/kg po; for response vs control in vivo at 24.9 mg/kg: 24.9 mg/kg po; for response vs control in vivo at 20.2 mg/kg: 20.2 mg/kg po; for response vs control in vivo at 19.1 mg/kg: 19.1 mg/kg po; for response vs control in vivo at 20.3 mg/kg: 20.3 mg/kg po; for response vs control in vivo at 22.1 mg/kg: 22.1 mg/kg po; for response vs control in vivo at 5.7 mg/kg: 5.7 mg/kg po
Method: Female CFLP mice each weighing approximately 24 g were given food and water ad lib before and during the experiment. The compounds were dissolved in water by addition of one mole of hydrochloric acid per mole of compound and these solutions were administered orally to each of 12 mice. A further 12 mice were dosed orally with water. The mice were placed in boxes through which air was drawn and the oxygen content of the air leaving the boxes was measured. The energy expenditure of the mice was calculated for 21 hours after dosing from the volume of air leaving the boxes and its oxygen content following the principles described by J. B. de V. Weir, J. Physiol. […] The food intake of the mice was measured over this same period of 21 hours. The results are expressed as a percentage of the mean food intake or rate of energy expenditure of the mice dosed with water.

[3] = test system: Rat hearts; test: Cardiac activity: rat hearts perfused by the Langendorff procedure
Method: Rat hearts were perfused by the Langendorff procedure.
Hearts were dissected free within 30 seconds of death and reverse perfused via the aorta and coronary vessels with Krebs-Ringer bicarbonate solution (pH 7.4, 37° C.) gassed with 95% oxygen: 5% carbon dioxide at a flow rate between 8-12 cm^3 /minute. Responses were observed after injection of drug dissolved in isotonic saline into the perfusion media.
Results are expressed as a percentage of the maximum response due to salbutamol.

[4] = test system: Female CFLP mice; test: Hypoglycaemic activity: blood glucose of fasted mice after subcutaneous glucose; format: in vivo; conditions: Mus musculus, read-out: REDUCTION IN AREA UNDER BLOOD GLUCOSE CURVE (%); for inhibition in vivo at 1 µmol/kg: 1.0 μ mol/kg oral
Method: Female CFLP mice, weighing approximately 25 g, were fasted for 24 hours prior to the study. The compounds under study were administered orally as an aqueous solution to each of 8 mice. 30 minutes later a blood sample ([…]) was obtained from the tail for the analysis of blood glucose. Immediately after taking this blood sample, glucose (1 g/kg body weight) was administered subcutaneously to each mouse. 8 mice were given water as a control. Blood samples were then obtained from each mouse at 30 minute intervals for 120 minutes.
Compounds that produced a significant (P<0.05) reduction on blood glucose, compared with control mice given water, at any time interval, were considered active. The area under the blood glucose curve over the 2 hour period after the administration of the glucose was calculated for each compound and compared with the value for control animals.

[5] = 0-3h, read-out: MEAN ENERGY EXPENDITURE (%) 0-3h
[6] = 0-21h, read-out: MEAN ENERGY EXPENDITURE (%) 0-21h
[7] = over 21 hours, read-out: MEAN FOOD INTAKE (%)
[8] = 30 μg added to perfusate, percentage of the maximum response due to salbutamol, read-out: HEART TENSION
[9] = 30 μg added to perfusate, percentage of the maximum response due to salbutamol, read-out: HEART RATE
[10] = 2.5 μ mol/kg oral, 2 hour period after glucose, vs control mice given water
[11] = 2 hour period after glucose, vs control mice given water

In the case of `CC(=O)Oc1ccccc1C(=O)O` [Aspirin, reference compound], the “% INHIBITION OF RESPONSE TO COLLAGEN” value ([1]; 600 μ mol/kg po) is reported as 47%.

In the case of `CC(Cc1ccc(OCCCCO)cc1)NCC(O)c1cccc(C(F)(F)F)c1` (centres unmarked) [Example 2, N-[2-(4-(4-hydroxybutoxy)phenyl)-1-methylethyl]-2-hydroxy-2-(3-trifluoromethylphenyl)ethanamine], the response vs control in vivo at 22.9 mg/kg [2, 5] is reported as 168%, the response vs control in vivo at 22.9 mg/kg [2, 6] is reported as 135% and the response vs control in vivo at 22.9 mg/kg [2, 7] is reported as 89%. For the same compound, the Emax [3, 8] was 22%, the Emax ([3]; read-out: HEART RATE) was 0% and the inhibition in vivo at 2.4 µmol/kg ([4]; 2.4 μ mol/kg oral, 2 hour period after glucose, vs control mice given water) was 57%. For the same compound, the “% INHIBITION OF RESPONSE TO COLLAGEN” value ([1]; 1 μ mol/kg po) was 26%.

`CC(Cc1ccc(OCCO)cc1)NCC(O)c1cccc(C(F)(F)F)c1` (centres unmarked) [Example 3, N-[2-(4-(2-Hydroxyethoxy)-phenyl)-1-methylethyl]-2-hydroxy-2-(3-trifluoromethylphenyl)ethanamine] gave a response vs control in vivo at 20 mg/kg [2, 5] of 178%, a response vs control in vivo at 20 mg/kg [2, 6] of 134% and a response vs control in vivo at 20 mg/kg [2, 7] of 82%. For the same compound, the Emax [3, 9] was 17%, the Emax [3, 8] was 50% and the inhibition in vivo at 2.5 µmol/kg [4, 10] was 52%. The “% INHIBITION OF RESPONSE TO COLLAGEN” value ([1]; 1 μ mol/kg po) was 47%.

`CC(Cc1ccc(OCCCCCCCCCCCO)cc1)NCC(O)c1cccc(C(F)(F)F)c1` (centres unmarked) [Example 6, N-[2-(4-(11-Hydroxyundecyloxy)phenyl)1-methylethyl]-2-hydroxy-2-(3-trifluoromethylphenyl)-ethanamine] was tested, and the response vs control in vivo at 23.3 mg/kg [2, 5] was 132%, the response vs control in vivo at 23.3 mg/kg [2, 6] was 101% and the response vs control in vivo at 23.3 mg/kg [2, 7] was 99%. The Emax [3, 9] was 0%, the Emax [3, 8] was 36% and the inhibition in vivo at 2.5 µmol/kg [4, 10] was 24%.

In the case of `CC(Cc1ccc(OC(C)(C)CO)cc1)NCC(O)c1cccc(C(F)(F)F)c1` (centres unmarked) [Example 7, N-[2-(4-(1,1-Dimethyl-2-hydroxyethoxy)phenyl)-1-methylethyl]-2-hydroxy-2-(3-trifluoromethylphenyl)-ethanamine], the response vs control in vivo at 24.9 mg/kg [2, 5] is reported as 145%, the response vs control in vivo at 24.9 mg/kg [2, 6] is reported as 118% and the response vs control in vivo at 24.9 mg/kg [2, 7] is reported as 116%. It also gave an Emax [3, 9] of 46%, an Emax [3, 8] of 29% and an inhibition in vivo at 2.5 µmol/kg ([4]; po, 2 h) of 45%.

`COc1ccc(C(O)CNC(C)Cc2ccc(OCCO)cc2)cc1F` (centres unmarked) [Example 8, N-[2-(4-(2-Hydroxyethoxy)phenyl)-1-methylethyl]-2-hydroxy-2-(3-fluoro-4-methoxyphenyl)-ethanamine] was tested, and the response vs control in vivo at 20.2 mg/kg [2, 5] was 138%, the response vs control in vivo at 20.2 mg/kg [2, 6] was 96% and the response vs control in vivo at 20.2 mg/kg [2, 7] was 86%. The Emax [3, 9] was 13%, the Emax [3, 8] was 13% and the inhibition in vivo at 12.5 µmol/kg ([4]; 12.5 μ mol/kg oral, 2 hour period after glucose, vs control mice given water) was 21%.

`CC(C)(CCc1ccc(OCCO)cc1)NCC(O)c1ccccc1` (centres unmarked) [Example 9, N-[3-[4-(2-Hydroxyethoxy)phenyl]-1,1-dimethylpropyl]-2-hydroxy-2-phenylethanamine] showed a response vs control in vivo at 19.1 mg/kg [2, 5] of 102%, a response vs control in vivo at 19.1 mg/kg [2, 6] of 98% and a response vs control in vivo at 19.1 mg/kg [2, 7] of 91%. The inhibition in vivo at 50 µmol/kg ([4]; 50.0 μ mol/kg oral, 2 hour period after glucose, vs control mice given water) was 55%.

`CC(CCc1ccc(OCCO)cc1)NCC(O)c1cccc(Cl)c1` (centres unmarked) [Example 10, N-[3-(4-(2-Hydroxyethoxy)phenyl)-1-methylpropyl]-2-hydroxy-2-(3-chlorophenyl)ethanamine] showed a response vs control in vivo at 20.3 mg/kg [2, 5] of 159%, a response vs control in vivo at 20.3 mg/kg [2, 6] of 114% and a response vs control in vivo at 20.3 mg/kg [2, 7] of 88%. For the same compound, the inhibition in vivo at 2.5 µmol/kg [4, 10] was 23%.

In the case of `Cc1cc(CC(C)NCC(O)c2cccc(C(F)(F)F)c2)ccc1OCCO` (centres unmarked) [Example 11, N-[2-{4-(2-Hydroxyethoxy)-3-methylphenyl}-1-methylethyl]-2-hydroxy-2-(3-trifluoromethylphenyl)ethanamine], the response vs control in vivo at 22.1 mg/kg [2, 5] is reported as 136%, the response vs control in vivo at 22.1 mg/kg [2, 6] is reported as 113% and the response vs control in vivo at 22.1 mg/kg [2, 7] is reported as 115%. It also gave an inhibition in vivo at 1 µmol/kg [4, 11] of 31%.

`C[C@H](Cc1ccc(OCCCCO)cc1)NC[C@H](O)c1cccc(C(F)(F)F)c1` [Example 13, N-[2-{4-(4-Hydroxybutoxy)phenyl}-1-(R)-1-methylethyl]-2-(R)-2-hydroxy-2-(3-trifluoromethylphenyl)ethanamine] was tested, and the response vs control in vivo at 5.7 mg/kg [2, 5] was 134%, the response vs control in vivo at 5.7 mg/kg [2, 6] was 116% and the response vs control in vivo at 5.7 mg/kg [2, 7] was 93%. It also gave an Emax [3, 9] of 17%, an Emax [3, 8] of 47% and an inhibition in vivo at 1 µmol/kg [4, 11] of 37%.

In the case of `CC(C)(C)NCC(O)c1ccc(O)c(CO)c1` (centres unmarked) [Salbutamol, reference compound], the Emax ([3]; salbutamol maximum response (reference), dose not stated, read-out: HEART RATE) is reported as 100% and the Emax ([3]; salbutamol maximum response (reference), dose not stated, read-out: HEART TENSION) is reported as 100%.
